# Laboratory results taken from paper PMC8599359 (Molecular Neurobiology, 2021).
# Legend:
# MMP-2 = target: T1, MMP-2 (Homo sapiens, UniProt P08253); experiment: Fluorometric substrate assay (MMP inhibitor profiling kit); type: biochemical; parameters: purchased Enzo life sciences BML-AK308
# T1 sequence (P08253 110-660): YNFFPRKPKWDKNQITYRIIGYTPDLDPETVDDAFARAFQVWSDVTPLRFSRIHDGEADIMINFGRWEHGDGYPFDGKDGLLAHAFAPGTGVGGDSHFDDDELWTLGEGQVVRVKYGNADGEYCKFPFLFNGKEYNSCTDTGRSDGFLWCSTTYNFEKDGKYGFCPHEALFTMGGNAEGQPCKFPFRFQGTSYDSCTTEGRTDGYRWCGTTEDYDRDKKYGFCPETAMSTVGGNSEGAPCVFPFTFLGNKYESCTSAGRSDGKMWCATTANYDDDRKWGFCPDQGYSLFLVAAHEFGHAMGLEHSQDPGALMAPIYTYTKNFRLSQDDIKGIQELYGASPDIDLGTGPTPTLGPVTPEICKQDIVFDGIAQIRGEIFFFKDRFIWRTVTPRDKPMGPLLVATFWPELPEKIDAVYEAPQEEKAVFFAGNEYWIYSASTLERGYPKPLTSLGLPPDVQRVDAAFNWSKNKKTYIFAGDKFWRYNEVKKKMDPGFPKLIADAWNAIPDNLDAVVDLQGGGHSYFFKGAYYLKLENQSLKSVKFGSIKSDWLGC
# Method: (§1) Kit contained a panel of ten MMPs and a quenched fluorogenic substrate OMNIMMP® RED. Composition of a quenched fluorogenic substrate was TQ3-GABA-Pro-Cha-Abu-Smc-His-Ala-Dab(6’-TAMRA)-Ala-Lys-NH2 [TQ3 = quencher; GABA = 4-aminobutyric acid; Cha = L-cyclohexylalanine; Abu = 2-aminobutyric acid; Smc = S-methyl-L-cysteine; Dab = 2,4-diaminobutyric acid; 6’-TAMRA = 6’-tetramethylrhodamine]. Experiment was performed as per instructions provided in the manufacturer’s manual. The assays were performed in a 96-well, black, flat, microplate format. The compound NNGH was provided as a prototypic control inhibitor. […] Untreated MMPs were used as control. The experiment was performed in biological triplicates. After 60-min incubation, fluorogenic substrate OMNIMMP® RED was added to each reaction/well to start the reaction. The plate was continuously read at Ex/Em = 545/576 nm (cutoff at 570 nm) for 30 min with 1-min time intervals at constant temperature, 37 °C, using Molecular Devices SpectraMax M3 plate reader with SoftMax Pro 6.2 software.
# MMP-9 [1] = target: T2, MMP-9 (Homo sapiens, UniProt P14780); experiment: as above; type: biochemical; parameters: purchased Enzo life sciences BML-AK308
# Method: as §1
# MMP-9 [2] = target: T2, MMP-9; experiment: Gelatin zymography of medium of PMA-stimulated THP-1 cells; type: cell-based; parameters: endogenous in cells; host or cells: PMA-stimulated THP-1 cells, culture medium; conditions: 100 µM, 18 h, compared to controls
# Method: THP-1 cells were plated in 12-well plates at a density of 1 × 10^6 cells per well. First, THP-1 were treated with phorbol-12-myristate-13-acetate (PMA) for 24 h to promote the differentiation of cells into macrophages and stimulate MMP secretion. […] For each treatment, biological triplicate samples were utilized. Following treatment, cell medium was collected from each well and centrifuged at 800 × g for 10 min at 4 °C to remove any cell debris. Collected samples were stored at − 80 °C for further analysis. A 10% SDS–polyacrylamide gel containing 0.1% gelatin was loaded with 3 µg of protein from cell medium for gelatin zymography. In parallel, second 10% SDS–polyacrylamide gel was used to assess equal protein loading. In addition, recombinant human MMP-2 and MMP-9 (10 ng each) were loaded as standards (EMD Millipore, Burlington, MA). Gel ran at 60 V until the loading dye reached the bottom of the gel. After the run, the gelatin gel was washed with water for 15 min and incubated in renaturation buffer [2.5% (v/v) Triton X-100 in Milli-Q water] for 60 min at room temperature. The renaturation buffer was replaced with a fresh renaturation buffer at the interval of 30 min. […] Relative activity of MMPs was measured by quantitating band density by ImageJ software and normalized with respective standard.
# T2 sequence (P14780 94-707): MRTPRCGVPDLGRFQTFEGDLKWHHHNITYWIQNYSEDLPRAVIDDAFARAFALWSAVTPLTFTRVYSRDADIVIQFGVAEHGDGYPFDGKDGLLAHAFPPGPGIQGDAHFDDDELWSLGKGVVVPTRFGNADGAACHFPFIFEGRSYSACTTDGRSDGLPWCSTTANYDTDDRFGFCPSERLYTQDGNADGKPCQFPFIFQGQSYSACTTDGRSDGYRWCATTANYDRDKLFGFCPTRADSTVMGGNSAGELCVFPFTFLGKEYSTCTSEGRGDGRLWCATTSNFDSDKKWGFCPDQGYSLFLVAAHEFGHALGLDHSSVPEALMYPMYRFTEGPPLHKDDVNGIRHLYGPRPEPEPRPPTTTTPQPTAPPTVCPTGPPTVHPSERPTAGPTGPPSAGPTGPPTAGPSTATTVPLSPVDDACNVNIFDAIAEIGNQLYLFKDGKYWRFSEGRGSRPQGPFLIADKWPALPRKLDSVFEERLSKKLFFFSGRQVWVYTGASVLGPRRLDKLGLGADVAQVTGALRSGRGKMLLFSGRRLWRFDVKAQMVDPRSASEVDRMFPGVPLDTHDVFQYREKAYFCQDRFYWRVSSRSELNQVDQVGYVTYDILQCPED
smiles,measurement,setting,value
"C[C@@H]1CCO[C@H]2Cn3cc(C(=O)NCc4ccc(F)cc4F)c(=O)c(O)c3C(=O)N12 [DTG, Dolutegravir]",inhibitory effect compared to doxycycline,"MMP-2; MMP-2, 20 µM",higher inhibitory effect
same,IC50,"MMP-2; human recombinant MMP-2, 60 min preincubation, four-parameter fit",16.9 µM
same,inhibitory effect compared to doxycycline,"MMP-9 [1]; MMP-9, 20 µM",higher inhibitory effect
same,IC50,"MMP-9 [1]; human recombinant MMP-9, 60 min preincubation, four-parameter fit",11.1 µM
same,Relative activity of pro form of MMP-9,MMP-9 [2],significantly decreased
